The text below walks through data of ChEMBL document CHEMBL4270640, “Discovery of new 2, 5-disubstituted 1,3-selenazoles as selective human carbonic anhydrase IX inhibitors with potent anti-tumor activity” (Eur J Med Chem, 2018).

Active and inactive are the calls of the source. No cut-off for these calls is given here. Some results are limits rather than exact numbers.

In one experiment the target is Carbonic anhydrase 9 (Homo sapiens, UniProt Q16790). The experiment in a line: Inhibition of recombinant human carbonic anhydrase 9 incubated for 15 mins prior to testing by stopped flow CO2 hydration assay.
The test system of experiment [1] is MDA-MB-231. Description: Antiproliferative activity against human MDA-MB-231 cells assessed as cell viability at 1 uM after 48 hrs under normoxic condition by MTT assay relative to control. It is filed as functional. The following applies: for viability at 1 µM: MDA-MB-231, 48 h, read-out: Activity.
In experiment [2] the test system is PC-3. Description: Antiproliferative activity against human PC3 cells assessed as cell viability at 10 uM after 48 hrs under normoxic condition by MTT assay relative to control. It is filed as functional.
The test system of experiment [3] is PC-3. Description: Antiproliferative activity against human PC3 cells assessed as cell viability at 30 uM after 48 hrs under normoxic condition by MTT assay relative to control. It is filed as functional. The note with it: PC-3, 48 h, read-out: Activity. In general terms: Tetrazolium dyes change colour on reduction, which living cells bring about.
Experiment [4] has as its system PC-3. Description: Antiproliferative activity against human PC3 cells assessed as cell viability at 1 uM after 48 hrs under normoxic condition by MTT assay relative to control. It is filed as functional. The note with it: for viability at 1 µM: PC-3, 48 h, read-out: Activity.
Experiment [5] has as its system PC-3. Description: Antiproliferative activity against human PC3 cells assessed as cell viability at 100 uM after 48 hrs under normoxic condition by MTT assay relative to control. The following applies: PC-3, 48 h, read-out: Activity. In kind it is functional.
The test system of experiment [6] is PC-3. The experiment in a line: Antiproliferative activity against human PC3 cells at 10 uM after 48 hrs under hypoxic condition by MTT assay relative to control. It is filed as functional.
Experiment [7] relates to MDA-MB-231. The experiment in a line: Antiproliferative activity against human MDA-MB-231 cells assessed as cell viability at 100 uM after 48 hrs under hypoxic condition by MTT assay relative to control. It is filed as functional. The following applies: MDA-MB-231, 48 h, read-out: Activity.
Experiment [8] concerns MDA-MB-231. The experiment in a line: Antiproliferative activity against human MDA-MB-231 cells assessed as cell killing at 30 to 100 uM after 48 hrs under normoxic condition by MTT assay. In kind it is functional, cell-based.
The subject of experiment [9] is MDA-MB-231. The experiment in a line: Antiproliferative activity against human MDA-MB-231 cells assessed as cell killing at 10 uM after 48 hrs under normoxic condition by MTT assay relative to control. In kind it is functional.
The test system of experiment [10] is PC-3. Description: Antiproliferative activity against human PC3 cells assessed as cell viability at 1 uM after 48 hrs under hypoxic condition by MTT assay relative to control. In kind it is functional. The note with it: PC-3, 48 h, read-out: Activity.

With `NS(=O)(=O)c1ccc(-c2ncc(C[Te]c3ccccc3)[se]2)cc1`, the Ki (usually the dissociation constant of the complex between target and ligand, obtained from inhibition or displacement) on Carbonic anhydrase 9 worked out at 7.2 nM.

In the case of `NS(=O)(=O)c1ccc(-c2ncc(-c3ccccc3)[se]2)cc1`, the Ki on Carbonic anhydrase 9 came to 6.5 nM.

Regarding `Cc1ccc([Te]Cc2cnc(-c3ccc(S(N)(=O)=O)cc3)[se]2)cc1`, the Ki at Carbonic anhydrase 9 amounted to 2.6 nM.

Regarding `COc1ccc([Se]Cc2cnc(-c3ccc(S(N)(=O)=O)cc3)[se]2)cc1`, the result in the experiment on MDA-MB-231 [1], with PC-3 [2], in the experiment with PC-3 [4] and in the experiment on MDA-MB-231 [9] was inactive. Moreover, the viability at 30 µM in the experiment with PC-3 [3] came out at 59%. Moreover, the viability at 100 µM in the experiment on PC-3 [5] stood at 11%; in the experiment with MDA-MB-231 [7], 46%. Further, the Activity in the experiment on PC-3 [6] is 77%. The result in the experiment on MDA-MB-231 [8] was Active. Further, the Ki at Carbonic anhydrase 9 was 0.55 nM.

On to `NS(=O)(=O)c1ccc(-c2ncc(CCl)[se]2)cc1`, for which the Ki at Carbonic anhydrase 9 stood at 2.8 nM.

With `NS(=O)(=O)c1ccc(-c2ncc(-c3ccc(Br)cc3)[se]2)cc1`, the inhibition constant Ki at Carbonic anhydrase 9 stood at 0.87 nM.

Turning to `NS(=O)(=O)c1ccc(-c2ncc(-c3ccc([N+](=O)[O-])cc3)[se]2)cc1`, the viability at 1 µM in the experiment with MDA-MB-231 [1] came to 73%; with PC-3 [4], 60%; with PC-3 [10], 32%. Moreover, the viability at 10 µM with PC-3 [2] (PC-3, 48 h, read-out: Activity) is 10%. Besides, at Carbonic anhydrase 9, the Ki amounted to 8.2 nM. The Activity in the experiment on MDA-MB-231 [9] is given as greater than 90%.

Take `NS(=O)(=O)c1ccc(-c2ncc(C[Se]c3ccccc3)[se]2)cc1`: on Carbonic anhydrase 9, the Ki was 9.1 nM.

As for `COc1cccc(-c2cnc(-c3ccc(S(N)(=O)=O)cc3)[se]2)c1`, the Ki at Carbonic anhydrase 9 is 56.3 nM.

Turning to `NS(=O)(=O)c1ccc(-c2ncc(-c3ccc(F)cc3)[se]2)cc1`, the inhibition constant (Ki) at Carbonic anhydrase 9 is 7.5 nM.

`N=C(N)SCc1cnc(-c2ccc(S(N)(=O)=O)cc2)[se]1`: the Ki at Carbonic anhydrase 9 is 7 nM.

As for `NS(=O)(=O)c1ccc(-c2ncc(-c3ccc(Cl)cc3)[se]2)cc1`, at Carbonic anhydrase 9, the Ki amounted to 8.4 nM.

For `COc1ccc([Te]Cc2cnc(-c3ccc(S(N)(=O)=O)cc3)[se]2)cc1`, the viability at 1 µM with MDA-MB-231 [1] stood at 16%; with PC-3 [4], 23%. The Ki at Carbonic anhydrase 9 was 0.89 nM.

As for `NC(=[Se])c1ccc(S(N)(=O)=O)cc1`, the Ki on Carbonic anhydrase 9 stood at 7.6 nM.

Turning to `Cc1ccc([Se]Cc2cnc(-c3ccc(S(N)(=O)=O)cc3)[se]2)cc1`, the Ki on Carbonic anhydrase 9 was 7.1 nM.

In the case of `NS(=O)(=O)c1ccc(-c2ncc(CSc3ccccc3)[se]2)cc1`, the Ki at Carbonic anhydrase 9 worked out at 5.4 nM.

In the case of `Cc1cnc(-c2ccc(S(N)(=O)=O)cc2)[se]1`, the Ki at Carbonic anhydrase 9 amounted to 6.9 nM.

For the compound `NS(=O)(=O)c1ccc(-c2ncc(C(=O)O)[se]2)cc1`, the Ki at Carbonic anhydrase 9 was found to be 9 nM.
